In article PMC7433010, “Exploration of multi‐target effects of 3‐benzoyl‐5‐hydroxychromen‐2‐one in Alzheimer’s disease cell and mouse models” (Aging Cell, 2020):

Assays:
[1] = target: T1, His‐tagged ∆K280 TauRD protein (Homo sapiens, UniProt P10636, DEL597-597); test: Thioflavin T binding assay for TauRD aggregation; type: biochemical; settings: 10 µM, 2 days at 37°C; without compound 16,856 AU
T1 construct: containing residues 244–372 of the full‐length 4R2N Tau441; added start Met (ATG codon in forward primer) (N); made in house; host or cells: E. coli BL21(DE3)pLysS
T1 sequence (P10636 with tags, fused parts or gaps isoform P10636-8 DEL280-280): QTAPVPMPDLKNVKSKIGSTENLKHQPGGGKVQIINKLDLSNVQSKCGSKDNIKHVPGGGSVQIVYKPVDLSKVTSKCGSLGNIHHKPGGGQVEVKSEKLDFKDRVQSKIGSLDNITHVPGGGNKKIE
Excerpt: Although known to reduce Aβ neurotoxicity (Lorenzo & Yankner, 1994), congo red was also reported as an agonist to drive aggregation within 293 cells expressing full‐length tau isoform htau40 (Bandyopadhyay, Li, Yin, & Kuret, 2007). Thus, we further examined the effects of congo red and tested chalcones on Tau misfolding using prokaryotic His‐tagged wild‐type (WT) and ∆K280 pET‐28a(+)‐TauRD proteins (Figure S3a) using thioflavin T binding assay and transmission electron microscopy (TEM) examination. […]
For thioflavin T binding assay, TauRD protein (20 μM in final 50 μl) was incubated with tested compounds (1−10 μM) in 150 mM NaCl and 20 mM Tris-HCl, pH 8.0, at 37°C for 48 h to form aggregates. […] Thioflavin T fluorescence intensity of samples was recorded by using a microplate reader (Bio-Tek FLx800), with excitation 420 nm and emission 485 nm filter combination.
Figure S3. TauRD-His proteins and Tau aggregation monitored by thioflavin T fluorescence and TEM. […] TauRD protein (20 μM in 50 μl buffer) was incubated with congo red, licochalcone A, or LM compounds (1−10 μM) at 37°C for 48 h, and aggregation was monitored by measuring thioflavin T fluorescence intensity (n = 3). p values: comparisons between 0 h and 48 h (^###: p < 0.001), wild type versus ΔK280 (^&&&: p < 0.001), or with and without compound addition (**: p < 0.01, ***: p < 0.001). […]

[2] = target: T1, His‐tagged ∆K280 TauRD protein; test: TEM examination of ΔK280 TauRD aggregates; type: biochemical; settings: 10 µM
Excerpt: For TauRD aggregation examination, the samples of formed fibrils without or with compound addition were placed on a 200-Mesh copper (holey-carbon) grid and viewed on a JEM-1230 transmission electron microscope (JEOL, Tokyo, Japan) at an accelerating voltage of 100 kV.
Figure S3. TauRD-His proteins and Tau aggregation monitored by thioflavin T fluorescence and TEM. (a) SDS-PAGE gel (left) and Western blot (right) of wild type (WT) and ΔK280 TauRD proteins from IPTG-induced bacterial cells. Wild type clone #3 and ΔK280 clone #2 (marked in red) were selected to prepare purified proteins for thioflavin T and TEM studies. (b) Thioflavin T binding assay for TauRD aggregation. TauRD protein (20 μM in 50 μl buffer) was incubated with congo red, licochalcone A, or LM compounds (1−10 μM) at 37°C for 48 h, and aggregation was monitored by measuring thioflavin T fluorescence intensity (n = 3). p values: comparisons between 0 h and 48 h (^###: p < 0.001), wild type versus ΔK280 (^&&&: p < 0.001), or with and without compound addition (**: p < 0.01, ***: p < 0.001). (one-way ANOVA with a post hoc Tukey test) (c) TEM examination of ΔK280 TauRD aggregation without or with congo red and LM-004 (10 μM) addition.

NQO1 = test: Western blot of NQO1 in ∆K280 TauRD‐DsRed SH‐SY5Y cells; type: cell-based, human; settings: 1 µM; induced untreated 79%, uninduced 100%
Procedure: (§1) Total proteins from ∆K280 TauRD-DsRed SH-SY5Y cells were obtained using a RIPA buffer containing 50 mM Tris-HCl (pH8.0), 150 mM NaCl, 2 mM EDTA (pH8.0), 50 mM NaF, 0.1% SDS, 0.5% sodium deoxycholate, 1% NP40, and a protease inhibitor cocktail (Sigma-Aldrich). After sonication and sitting on ice for 20 min, the lysates were centrifuged at 14,000 × g for 30 min at 4°C. Protein concentrations were determined using a protein assay kit (Bio-Rad, Hercules, CA, USA), with albumin as a standard. Total proteins (20 µg) were electrophoresed on 10% or 12% SDS-polyacrylamide gel and transferred onto polyvinylidene difluoride (PVDF) membranes (Sigma-Aldrich) through reverse electrophoresis. […] Subsequently, immune complexes were detected using a horseradish peroxidase-conjugated goat anti-mouse or goat anti-rabbit IgG antibody (1:5000; GeneTex, Irvive, CA, USA) and a chemiluminescent substrate (Millipore).

pAKT (S473) = test: Western blot of pAKT (S473) in ∆K280 TauRD‐DsRed SH‐SY5Y cells; type: cell-based, human; settings: induced untreated 84%, uninduced 100%
Procedure: as §1
Figure S4. ΔK280 TauRD-DsRed SH-SY5Y cells. […] On day 9, neurite outgrowth and caspase 3 activity were measured. In addition, expression of HSPB1, NRF2, and CREB pathways were assessed. (b) Relative AKT, pAKT, ERK, and pERK protein levels analyzed through immunoblotting. […]

SMILES | ΔK280 TauRD aggregation (thioflavin T fluorescence) [1] | Tau aggregates by TEM [2] | NQO1 protein level (NQO1) | pAKT (S473) expression level (pAKT (S473))
COc1ccc(C(=O)/C=C/c2cc(Br)ccc2O)cc1 [LM‐004] | 6,758 AU | reduced Tau aggregates | – | –
O=C(c1ccccc1)c1cc2c(O)cccc2oc1=O [LM‐031, 3‐benzoyl‐5‐hydroxychromen‐2‐one] | – | – | 94% | 113%
Nc1c(/N=N/c2ccc(-c3ccc(/N=N/c4cc(S(=O)(=O)O)c5ccccc5c4N)cc3)cc2)cc(S(=O)(=O)O)c2ccccc12 [congo red, reference compound] | 4,774 AU | reduced Tau aggregates | – | –
